Tested on: distant metastatic pancreatic cancer
Experiment: Multicenter, open-label study of Nivolumab in combination with mFFX therapy; anti-tumor effect by CT/MRI according to RECIST guideline version 1.1
Assay type: in vivo, patients
Details: 16 weeks after start of administration, central judgment
Method: The purpose of this clinical trial is to evaluate the efficacy and safety in combination of Nivolumab and mFFX therapy for patients with distant metastatic pancreatic cancer, having no history of chemotherapy. The clinical trial can evaluate the combined effect of Nivolumab and mFFX therapy.
Patients with distant metastatic pancreatic cancer, having no history of chemotherapy
Nivolumab was intravenously administered at 480 mg every 4 weeks over 30 minutes, and Nivolumab was continuously administered until falling into the prescribed criterion for discontinuing the administration of Nivolumab. No change in dose of Nivolumab is allowed. When Nivolumab and mFFX therapy were administered on the same day, Nivolumab was administered initially, and at least 30 minutes after the end of Nivolumab administration, mFFX therapy started.
Oxaliplatin was intravenously administered at 85 mg/m^2 over 2 hours, and then levofolinate was intravenously administered at 200 mg/m^2 over 2 hours. 30 minutes after the start of levofolinate administration, irinotecan was intravenously administered at 150 mg/m^2 over 1.5 hours. Further, after completion of levofolinate administration, fluorouracil was intravenously administered at 2400 mg/m^2 over 46 hours. This was set as one cycle and repeated every 2 weeks.
The anti-tumor effect was evaluated by image diagnosis using CT/magnetic resonance imaging (MRI) on chest, abdomen and pelvis, and measuring the tumor diameter in target lesion according to RECIST guideline version 1.1. The diagnosis imaging (measurement of tumor diameter and judgement of anti-tumor effect) was conducted at the following time points. […]
6 months after the first subject was enrolled, for 7 subjects in which the image diagnosis twice every 8 weeks as defined in the clinical trial protocol was completed (16 weeks after the start of administration of the drug), the effectiveness was evaluated (central judgment).

[1] = Nivolumab 480 mg i.v. every 4 weeks in combination with mFFX therapy, 7 subjects evaluated

## Nivolumab
Nivolumab 480 mg i.v. every 4 weeks in combination with mFFX therapy every 2 weeks, 7 subjects with distant metastatic pancreatic cancer, no history of chemotherapy
  response rate: 42.9%
[1]
  CR (number of cases): 0 cases
  PR (number of cases): 3 cases
